From ChEMBL document CHEMBL3046801, “Synthesis of 2-R1-2-(4-(2-fluoroethoxy)benzamido)acetate as potential PET imaging agents” (Med Chem Res, 2012)

Legend:
Brain [1] = experiment: Biodistribution in tumor bearing Mus musculus KM (mouse) brain at 5 min by microPET imaging analysis; format: ADME, organism-based; settings: in vivo
Heart [2] = experiment: Biodistribution in tumor bearing Mus musculus KM (mouse) heart at 60 min by microPET imaging analysis; format: ADME, organism-based; settings: in vivo, 1 h
Liver [3] = experiment: Biodistribution in tumor bearing Mus musculus KM (mouse) liver at 60 min by microPET imaging analysis; format: ADME, organism-based; settings: in vivo, 1 h
Brain [4] = experiment: Biodistribution in tumor bearing Mus musculus KM (mouse) brain at 30 min by microPET imaging analysis; format: ADME, organism-based; settings: in vivo, 0.5 h
Liver [5] = experiment: Biodistribution in tumor bearing Mus musculus KM (mouse) liver at 120 min by microPET imaging analysis; format: ADME, organism-based; settings: in vivo, 2 h
Blood [6] = experiment: Biodistribution in tumor bearing Mus musculus KM (mouse) blood at 15 min by microPET imaging analysis; format: ADME, organism-based; settings: in vivo, 0.25 h
Kidney [7] = experiment: Biodistribution in tumor bearing Mus musculus KM (mouse) kidney at 30 min by microPET imaging analysis; format: ADME, organism-based; settings: in vivo, 0.5 h
Spleen [8] = experiment: Biodistribution in tumor bearing Mus musculus KM (mouse) spleen at 60 min by microPET imaging analysis; format: ADME, organism-based; settings: in vivo, 1 h
Kidney [9] = experiment: Biodistribution in tumor bearing Mus musculus KM (mouse) kidney at 60 min by microPET imaging analysis; format: ADME, organism-based; settings: in vivo, 1 h
Tumour [10] = experiment: Biodistribution in Mus musculus KM (mouse) tumor at 60 min by microPET imaging analysis; format: ADME, organism-based, Neoplasm; settings: in vivo, 1 h
Brain [11] = experiment: Biodistribution in tumor bearing Mus musculus KM (mouse) brain at 60 min by microPET imaging analysis; format: ADME, organism-based; settings: in vivo, 1 h
Liver [12] = experiment: Biodistribution in tumor bearing Mus musculus KM (mouse) liver at 15 min by microPET imaging analysis; format: ADME, organism-based; settings: in vivo, 0.25 h
Muscle tissue [13] = experiment: Biodistribution in tumor bearing Mus musculus KM (mouse) muscle at 120 min by microPET imaging analysis; format: ADME, organism-based; settings: in vivo, 2 h
Spleen [14] = experiment: Biodistribution in tumor bearing Mus musculus KM (mouse) spleen at 5 min by microPET imaging analysis; format: ADME, organism-based; settings: in vivo
Muscle tissue [15] = experiment: Biodistribution in tumor bearing Mus musculus KM (mouse) muscle at 5 min by microPET imaging analysis; format: ADME, organism-based; settings: in vivo
Lung [16] = experiment: Biodistribution in tumor bearing Mus musculus KM (mouse) Lung at 60 min by microPET imaging analysis; format: ADME, organism-based; settings: in vivo, 1 h
Heart [17] = experiment: Biodistribution in tumor bearing Mus musculus KM (mouse) heart at 15 min by microPET imaging analysis; format: ADME, organism-based; settings: in vivo, 0.25 h
Muscle tissue [18] = experiment: Biodistribution in tumor bearing Mus musculus KM (mouse) muscle at 60 min by microPET imaging analysis; format: ADME, organism-based; settings: in vivo, 1 h
Kidney [19] = experiment: Biodistribution in tumor bearing Mus musculus KM (mouse) kidney at 15 min by microPET imaging analysis; format: ADME, organism-based; settings: in vivo, 0.25 h
Nucleic Acid [20] = experiment: Ratio of drug uptake in tumor to muscle in Mus musculus KM (mouse) at 15 min; format: ADME, nucleic-acid assay; settings: in vivo, 0.25 h
Lung [21] = experiment: Biodistribution in tumor bearing Mus musculus KM (mouse) Lung at 120 min by microPET imaging analysis; format: ADME, organism-based; settings: in vivo, 2 h
Blood [22] = experiment: Biodistribution in tumor bearing Mus musculus KM (mouse) blood at 5 min by microPET imaging analysis; format: ADME, organism-based; settings: in vivo
Muscle tissue [23] = experiment: Biodistribution in tumor bearing Mus musculus KM (mouse) muscle at 30 min by microPET imaging analysis; format: ADME, organism-based; settings: in vivo, 0.5 h
Heart [24] = experiment: Biodistribution in tumor bearing Mus musculus KM (mouse) heart at 120 min by microPET imaging analysis; format: ADME, organism-based; settings: in vivo, 2 h
Heart [25] = experiment: Biodistribution in tumor bearing Mus musculus KM (mouse) heart at 30 min by microPET imaging analysis; format: ADME, organism-based; settings: in vivo, 0.5 h
Spleen [26] = experiment: Biodistribution in tumor bearing Mus musculus KM (mouse) spleen at 15 min by microPET imaging analysis; format: ADME, organism-based; settings: in vivo, 0.25 h
Brain [27] = experiment: Biodistribution in tumor bearing Mus musculus KM (mouse) brain at 15 min by microPET imaging analysis; format: ADME, organism-based; settings: in vivo, 0.25 h
Muscle tissue [28] = experiment: Biodistribution in tumor bearing Mus musculus KM (mouse) muscle at 15 min by microPET imaging analysis; format: ADME, organism-based; settings: in vivo, 0.25 h
Nucleic Acid [29] = experiment: Ratio of drug uptake in tumor to muscle in Mus musculus KM (mouse) at 120 min; format: ADME; settings: in vivo, 2 h
Tumour [30] = experiment: Biodistribution in Mus musculus KM (mouse) tumor at 15 min by microPET imaging analysis; format: ADME, organism-based, Neoplasm; settings: in vivo, 0.25 h
Spleen [31] = experiment: Biodistribution in tumor bearing Mus musculus KM (mouse) spleen at 30 min by microPET imaging analysis; format: ADME, organism-based; settings: in vivo, 0.5 h
Lung [32] = experiment: Biodistribution in tumor bearing Mus musculus KM (mouse) Lung at 5 min by microPET imaging analysis; format: ADME, organism-based; settings: in vivo
Blood [33] = experiment: Biodistribution in tumor bearing Mus musculus KM (mouse) blood at 30 min by microPET imaging analysis; format: ADME, organism-based; settings: in vivo, 0.5 h
Lung [34] = experiment: Biodistribution in tumor bearing Mus musculus KM (mouse) Lung at 15 min by microPET imaging analysis; format: ADME, organism-based; settings: in vivo, 0.25 h
Nucleic Acid [35] = experiment: Ratio of drug uptake in tumor to muscle in Mus musculus KM (mouse) at 60 min; format: ADME, nucleic-acid assay; settings: in vivo, 1 h
Heart [36] = experiment: Biodistribution in tumor bearing Mus musculus KM (mouse) heart at 5 min by microPET imaging analysis; format: ADME, organism-based; settings: in vivo
Kidney [37] = experiment: Biodistribution in tumor bearing Mus musculus KM (mouse) kidney at 5 min by microPET imaging analysis; format: ADME, organism-based; settings: in vivo
Spleen [38] = experiment: Biodistribution in tumor bearing Mus musculus KM (mouse) spleen at 120 min by microPET imaging analysis; format: ADME, organism-based; settings: in vivo, 2 h
Tumour [39] = experiment: Biodistribution in Mus musculus KM (mouse) tumor at 5 min by microPET imaging analysis; format: ADME, organism-based, Neoplasm; settings: in vivo
Liver [40] = experiment: Biodistribution in tumor bearing Mus musculus KM (mouse) liver at 30 min by microPET imaging analysis; format: ADME, organism-based; settings: in vivo, 0.5 h
Kidney [41] = experiment: Biodistribution in tumor bearing Mus musculus KM (mouse) kidney at 120 min by microPET imaging analysis; format: ADME, organism-based; settings: in vivo, 2 h
Brain [42] = experiment: Biodistribution in tumor bearing Mus musculus KM (mouse) brain at 120 min by microPET imaging analysis; format: ADME, organism-based; settings: in vivo, 2 h
Nucleic Acid [43] = experiment: Ratio of drug uptake in tumor to muscle in Mus musculus KM (mouse) at 30 min; format: ADME, nucleic-acid assay; settings: in vivo, 0.5 h
Blood [44] = experiment: Biodistribution in tumor bearing Mus musculus KM (mouse) blood at 60 min by microPET imaging analysis; format: ADME, organism-based; settings: in vivo, 1 h
Liver [45] = experiment: Biodistribution in tumor bearing Mus musculus KM (mouse) liver at 5 min by microPET imaging analysis; format: ADME, organism-based; settings: in vivo
Blood [46] = experiment: Biodistribution in tumor bearing Mus musculus KM (mouse) blood at 120 min by microPET imaging analysis; format: ADME, organism-based; settings: in vivo, 2 h
Lung [47] = experiment: Biodistribution in tumor bearing Mus musculus KM (mouse) Lung at 30 min by microPET imaging analysis; format: ADME, organism-based; settings: in vivo, 0.5 h
Tumour [48] = experiment: Biodistribution in Mus musculus KM (mouse) tumor at 120 min by microPET imaging analysis; format: ADME, organism-based, Neoplasm; settings: in vivo, 2 h
Tumour [49] = experiment: Biodistribution in Mus musculus KM (mouse) tumor at 30 min by microPET imaging analysis; format: ADME, organism-based, Neoplasm; settings: in vivo, 0.5 h

## OC[C@H]1OC(O)[C@H]([18F])[C@@H](O)[C@@H]1O (some centres undefined) [FLUDEOXYGLUCOSE F 18]
Brain [1]
  Drug uptake: 3.81 % ID/g
Heart [2]
  Drug uptake: 8.87 % ID/g
Liver [3]
  Drug uptake: 0.5 % ID/g
Brain [4]
  Drug uptake: 4.25 % ID/g
Liver [5]
  Drug uptake: 0.49 % ID/g
Blood [6]
  Drug uptake: 0.94 % ID/g
Kidney [7]
  Drug uptake: 1.07 % ID/g
Spleen [8]
  Drug uptake: 1.83 % ID/g
Kidney [9]
  Drug uptake: 0.9 % ID/g
Tumour [10]
  Drug uptake: 3.86 % ID/g
Brain [11]
  Drug uptake: 3.51 % ID/g
Liver [12]
  Drug uptake: 0.92 % ID/g
Muscle tissue [13]
  Drug uptake: 1.85 % ID/g
Spleen [14]
  Drug uptake: 1.92 % ID/g
Muscle tissue [15]
  Drug uptake: 2.92 % ID/g
Lung [16]
  Drug uptake: 1.52 % ID/g
Heart [17]
  Drug uptake: 6.12 % ID/g
Muscle tissue [18]
  Drug uptake: 1.99 % ID/g
Kidney [19]
  Drug uptake: 2.05 % ID/g
Nucleic Acid [20]
  Ratio: 1.28
Lung [21]
  Drug uptake: 1.05 % ID/g
Blood [22]
  Drug uptake: 2.01 % ID/g
Muscle tissue [23]
  Drug uptake: 2.08 % ID/g
Heart [24]
  Drug uptake: 9.6 % ID/g
Heart [25]
  Drug uptake: 6.42 % ID/g
Spleen [26]
  Drug uptake: 1.98 % ID/g
Brain [27]
  Drug uptake: 4.55 % ID/g
Muscle tissue [28]
  Drug uptake: 2.33 % ID/g
Nucleic Acid [29]
  Ratio: 1.74
Tumour [30]
  Drug uptake: 2.97 % ID/g
Spleen [31]
  Drug uptake: 1.75 % ID/g
Lung [32]
  Drug uptake: 2.37 % ID/g
Blood [33]
  Drug uptake: 0.29 % ID/g
Lung [34]
  Drug uptake: 1.96 % ID/g
Nucleic Acid [35]
  Ratio: 1.94
Heart [36]
  Drug uptake: 5.33 % ID/g
Kidney [37]
  Drug uptake: 3.36 % ID/g
Spleen [38]
  Drug uptake: 1.35 % ID/g
Tumour [39]
  Drug uptake: 1.96 % ID/g
Liver [40]
  Drug uptake: 0.46 % ID/g
Kidney [41]
  Drug uptake: 0.52 % ID/g
Brain [42]
  Drug uptake: 1.89 % ID/g
Nucleic Acid [43]
  Ratio: 1.52
Blood [44]
  Drug uptake: 0.19 % ID/g
Liver [45]
  Drug uptake: 1.85 % ID/g
Blood [46]
  Drug uptake: 0.15 % ID/g
Lung [47]
  Drug uptake: 1.4 % ID/g
Tumour [48]
  Drug uptake: 3.12 % ID/g
Tumour [49]
  Drug uptake: 3.16 % ID/g
